Key:
Assay type in all cases: biochemical
[1] = biological target: JAK1 (Homo sapiens, UniProt P23458); assay: JAK 1 enzymatic inhibitory activity IC50 assay (Caliper conversion rate); details: Km ATP, 28° C., 1 hour
Summary of the method: (§1)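 Human JAK1 or JAK2 enzyme was preincubated with graded compound (2% DMSO) in HEPES pH 7.5/Brij-35/DTT buffer (JAK1 also with Triton), then peptide substrate, 10 mM MgCl2 and ATP at Km were added. Reactions ran 1 hour at 28° C; Caliper conversion rate gave inhibition, averaged over two tests, for IC50.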

[2] = biological target: JAK2 (Homo sapiens, UniProt O60674); assay: JAK 2 enzymatic inhibitory activity IC50 assay (Caliper conversion rate); details: Km ATP, 28° C., 1 hour
JAK2, sequence (O60674 whole entry, species assumed): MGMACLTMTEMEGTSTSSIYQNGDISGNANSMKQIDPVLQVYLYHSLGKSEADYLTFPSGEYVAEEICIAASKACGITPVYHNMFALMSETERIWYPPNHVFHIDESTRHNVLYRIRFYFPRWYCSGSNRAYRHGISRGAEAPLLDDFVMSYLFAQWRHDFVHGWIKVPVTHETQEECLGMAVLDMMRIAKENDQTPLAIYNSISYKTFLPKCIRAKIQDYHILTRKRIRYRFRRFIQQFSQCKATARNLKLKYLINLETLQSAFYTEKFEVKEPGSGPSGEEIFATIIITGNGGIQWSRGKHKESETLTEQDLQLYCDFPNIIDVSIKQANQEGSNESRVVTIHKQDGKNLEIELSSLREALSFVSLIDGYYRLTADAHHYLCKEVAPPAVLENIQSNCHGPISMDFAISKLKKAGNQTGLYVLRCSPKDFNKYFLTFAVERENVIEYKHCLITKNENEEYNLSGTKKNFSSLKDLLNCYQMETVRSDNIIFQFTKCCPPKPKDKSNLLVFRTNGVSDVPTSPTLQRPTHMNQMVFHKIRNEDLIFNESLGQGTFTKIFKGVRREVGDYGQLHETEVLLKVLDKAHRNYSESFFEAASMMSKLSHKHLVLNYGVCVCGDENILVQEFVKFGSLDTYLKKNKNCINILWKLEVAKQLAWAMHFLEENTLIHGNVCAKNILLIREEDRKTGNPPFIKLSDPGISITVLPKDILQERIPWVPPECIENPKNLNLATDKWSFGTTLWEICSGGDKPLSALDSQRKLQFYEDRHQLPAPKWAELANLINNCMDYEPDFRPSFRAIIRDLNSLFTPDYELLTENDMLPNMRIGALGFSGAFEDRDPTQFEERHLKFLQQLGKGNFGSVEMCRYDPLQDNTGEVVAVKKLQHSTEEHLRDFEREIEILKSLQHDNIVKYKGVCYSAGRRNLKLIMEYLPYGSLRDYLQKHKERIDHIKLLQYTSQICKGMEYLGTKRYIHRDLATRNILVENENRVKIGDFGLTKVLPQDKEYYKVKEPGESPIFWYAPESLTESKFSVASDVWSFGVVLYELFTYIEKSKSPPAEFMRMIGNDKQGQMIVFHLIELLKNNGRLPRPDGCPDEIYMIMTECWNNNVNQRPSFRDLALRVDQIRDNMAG
Summary of the method: as §1

[3] = biological target: T1, JAK3 (Homo sapiens, UniProt P52333); assay: JAK 3 enzymatic inhibitory activity IC50 assay (Caliper conversion rate); details: Km ATP, 28° C., 1 hour; read-out: JAK 3 enzymatic inhibitory activity IC50
T1 sequence (P52333 1-1124): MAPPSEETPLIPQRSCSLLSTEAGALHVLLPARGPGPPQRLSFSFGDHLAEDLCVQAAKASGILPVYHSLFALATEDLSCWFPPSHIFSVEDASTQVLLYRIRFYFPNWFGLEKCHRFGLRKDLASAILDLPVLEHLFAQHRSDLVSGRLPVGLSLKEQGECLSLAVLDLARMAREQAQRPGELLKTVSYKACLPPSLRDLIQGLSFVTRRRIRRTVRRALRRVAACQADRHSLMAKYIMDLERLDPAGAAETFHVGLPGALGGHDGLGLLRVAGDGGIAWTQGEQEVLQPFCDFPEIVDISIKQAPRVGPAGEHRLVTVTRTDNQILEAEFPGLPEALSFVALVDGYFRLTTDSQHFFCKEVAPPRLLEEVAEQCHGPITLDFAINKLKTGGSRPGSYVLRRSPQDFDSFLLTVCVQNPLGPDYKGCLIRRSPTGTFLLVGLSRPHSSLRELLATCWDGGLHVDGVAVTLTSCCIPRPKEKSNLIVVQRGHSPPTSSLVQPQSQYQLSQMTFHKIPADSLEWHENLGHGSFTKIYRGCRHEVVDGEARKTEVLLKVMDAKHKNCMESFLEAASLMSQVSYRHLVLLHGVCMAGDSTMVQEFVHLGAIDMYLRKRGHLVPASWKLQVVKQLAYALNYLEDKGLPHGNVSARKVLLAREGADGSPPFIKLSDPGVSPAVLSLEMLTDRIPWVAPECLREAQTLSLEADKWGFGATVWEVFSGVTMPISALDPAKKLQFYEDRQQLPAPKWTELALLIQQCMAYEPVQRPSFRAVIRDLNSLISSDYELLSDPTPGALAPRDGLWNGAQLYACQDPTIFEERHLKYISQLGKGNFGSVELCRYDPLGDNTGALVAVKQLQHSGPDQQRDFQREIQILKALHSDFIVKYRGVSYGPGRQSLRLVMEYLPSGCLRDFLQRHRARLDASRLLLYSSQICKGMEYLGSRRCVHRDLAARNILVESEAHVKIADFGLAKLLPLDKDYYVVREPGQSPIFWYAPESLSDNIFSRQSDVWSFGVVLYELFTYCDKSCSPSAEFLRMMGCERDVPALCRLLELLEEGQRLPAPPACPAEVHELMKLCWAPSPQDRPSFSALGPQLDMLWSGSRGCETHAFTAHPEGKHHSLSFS

JAK1, sequence (P23458 whole entry, species assumed): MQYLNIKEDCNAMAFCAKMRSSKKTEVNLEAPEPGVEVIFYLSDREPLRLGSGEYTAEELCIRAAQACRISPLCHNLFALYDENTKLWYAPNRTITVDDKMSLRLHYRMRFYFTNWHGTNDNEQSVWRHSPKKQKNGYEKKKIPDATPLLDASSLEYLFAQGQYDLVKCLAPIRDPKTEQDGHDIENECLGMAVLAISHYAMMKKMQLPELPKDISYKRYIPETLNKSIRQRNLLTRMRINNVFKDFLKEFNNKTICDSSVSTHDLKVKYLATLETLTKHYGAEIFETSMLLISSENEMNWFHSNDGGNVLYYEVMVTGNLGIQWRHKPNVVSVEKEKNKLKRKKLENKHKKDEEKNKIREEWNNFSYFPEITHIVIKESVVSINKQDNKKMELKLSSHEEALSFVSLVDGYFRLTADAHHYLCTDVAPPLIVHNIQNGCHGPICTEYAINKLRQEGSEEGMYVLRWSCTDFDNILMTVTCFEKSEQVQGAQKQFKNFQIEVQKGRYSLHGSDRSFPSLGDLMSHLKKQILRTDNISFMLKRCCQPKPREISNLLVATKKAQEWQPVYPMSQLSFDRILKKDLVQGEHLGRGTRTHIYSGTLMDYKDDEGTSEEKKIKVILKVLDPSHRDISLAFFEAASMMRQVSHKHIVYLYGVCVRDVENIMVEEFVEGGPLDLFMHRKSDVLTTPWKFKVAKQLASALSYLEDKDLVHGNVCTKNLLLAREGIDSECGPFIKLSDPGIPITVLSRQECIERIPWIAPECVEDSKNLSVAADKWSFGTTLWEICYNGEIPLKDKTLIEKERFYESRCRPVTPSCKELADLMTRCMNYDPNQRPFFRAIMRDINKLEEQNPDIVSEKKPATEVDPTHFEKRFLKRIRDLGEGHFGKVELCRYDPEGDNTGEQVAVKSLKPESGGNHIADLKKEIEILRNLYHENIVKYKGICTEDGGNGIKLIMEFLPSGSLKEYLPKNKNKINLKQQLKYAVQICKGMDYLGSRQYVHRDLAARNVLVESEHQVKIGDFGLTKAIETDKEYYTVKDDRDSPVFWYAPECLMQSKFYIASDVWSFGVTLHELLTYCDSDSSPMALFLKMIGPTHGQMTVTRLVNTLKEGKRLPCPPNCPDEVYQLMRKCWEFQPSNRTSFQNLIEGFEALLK

| Structure (SMILES) | IC50 [1] [nM] | IC50 [2] [nM] | IC50 [3] [nM] |
| --- | --- | --- | --- |
| N#CCC1(n2cc(-c3nc(Nc4ccccc4)nc4ccsc34)cn2)COC1 [Compound T-20, 2-(3-(4-(2-(Phenylamino)thieno[3,2-d]pyrimidin-4-yl)-1H-pyrazol-1-yl)oxetan-3-yl)acetonitrile] | 50 to 500 | < 50 | 500 to 1000 |
| CCS(=O)(=O)N1CC(CC#N)(n2cc(-c3nc(Nc4ccc(-n5cncn5)cc4)nc4ccsc34)cn2)C1 [Compound T-10, 2-(3-(4-(2-((4-(1H-1,2,4-Triazol-1-yl)phenyl)amino)thieno[3,2-d]pyrimidin-4-yl)-1H-pyrazol-1-yl)-1-(ethylsulfonyl)azetidin-3-yl)acetonitrile] | < 50 | < 50 | 50 to 500 |
| CCS(=O)(=O)N1CC(CC#N)(n2cc(-c3nc(Nc4cn(C)cn4)nc4ccsc34)cn2)C1 [Compound T-48, 2-(1-(Ethylsulfonyl)-3-(4-(2-((1-methyl-1H-imidazol-4-yl)amino)thieno[3,2-d]pyrimidin-4-yl)-1H-pyrazol-1-yl)azetidin-3-yl)acetonitrile] | > 1000 | 50 to 500 | > 1000 |
| CCS(=O)(=O)N1CC(CC#N)(n2cc(-c3nc(Nc4ccncc4)nc4ccsc34)cn2)C1 [Compound T-21, 2-(1-(Ethylsulfonyl)-3-(4-(2-(pyridin-4-ylamino)thieno[3,2-d]pyrimidin-4-yl)-1H-pyrazol-1-yl)azetidin-3-yl)acetonitrile] | 50 to 500 | < 50 | 50 to 500 |
| CCS(=O)(=O)N1CC(CC#N)(n2cc(-c3nc(Nc4cnn(C(C)=O)c4)nc4ccsc34)cn2)C1 [Compound T-52, 2-(3-(4-(2-((1-Acetyl-1H-pyrazol-4-yl)amino)thieno[3,2-d]pyrimidin-4-yl)-1H-pyrazol-1-yl)-1-(ethylsulfonyl)azetidin-3-yl)acetonitrile] | < 50 | < 50 | 50 to 500 |
| CCS(=O)(=O)N1CC(CC#N)(n2cc(-c3nc(Nc4cnn(CCC(=O)N(C)C)c4)nc4ccsc34)cn2)C1 [Compound T-36, 3-(4-((4-(1-(3-(Cyanomethyl)-1-(ethylsulfonyl)azetidin-3-yl)-1H-pyrazol-4-yl)thieno[3,2-d]pyrimidin-2-yl)amino)-1H-pyrazol-1-yl)-N,N-dimethylpropanamide] | 50 to 500 | < 50 | < 50 |
| CCS(=O)(=O)N1CC(CC#N)(n2cc(-c3nc(Nc4cnn(C(C)C)c4)nc4ccsc34)cn2)C1 [Compound T-41, 2-(1-(Ethylsulfonyl)-3-(4-(2-((1-isopropyl-1H-pyrazol-4-yl)amino)thieno[3,2-d]pyrimidin-4-yl)-1H-pyrazol-1-yl)azetidin-3-yl)acetonitrile] | < 50 | < 50 | < 50 |
| CCS(=O)(=O)N1CC(CC#N)(n2cc(-c3nc(Nc4ccccc4)nc4cc(C)sc34)cn2)C1 [Compound T-23, 2-(1-(Ethylsulfonyl)-3-(4-(6-methyl-2-(phenylamino)thieno[3,2-d]pyrimidin-4-yl)-1H-pyrazol-1-yl)azetidin-3-yl)acetonitrile] | > 1000 | > 1000 | > 1000 |

The remaining lines, values ahead:

| IC50 [1] [nM] | IC50 [2] [nM] | IC50 [3] [nM] | Structure (SMILES) |
| --- | --- | --- | --- |
| 50 to 500 | < 50 | 50 to 500 | CCS(=O)(=O)N1CC(CC#N)(n2cc(-c3nc(Nc4ccc(N5CCOCC5)nc4)nc4ccsc34)cn2)C1 [Compound T-62, 2-(1-(Ethylsulfonyl)-3-(4-(2-((6-morpholinopyridin-3-yl)amino)thieno[3,2-d]pyrimidin-4-yl)-1H-pyrazol-1-yl)azetidin-3-yl)acetonitrile] |
| 50 to 500 | < 50 | 50 to 500 | C[C@H](O)Cn1cc(Nc2nc(-c3cnn(C4(CC#N)COC4)c3)c3sccc3n2)cn1 [Compound T-81, (S)-2-(3-(4-(2-((1-(2-Hydroxypropyl)-1H-pyrazol-4-yl)amino)thieno[3,2-d]pyrimidin-4-yl)-1H-pyrazol-1-yl)oxetan-3-yl)acetonitrile] |
| < 50 | < 50 | < 50 | CCS(=O)(=O)N1CC(CC#N)(n2cc(-c3nc(Nc4cc(C)[nH]n4)nc4ccsc34)cn2)C1 [Compound T-72, 2-(1-(Ethylsulfonyl)-3-(4-(2-((5-methyl-1H-pyrazol-3-yl)amino)thieno[3,2-d]pyrimidin-4-yl)-1H-pyrazol-1-yl)azetidin-3-yl)acetonitrile] |
| < 50 | < 50 | < 50 | Cn1cc(Nc2nc(-c3cnn(C4(CC#N)CN(S(C)(=O)=O)C4)c3)c3sccc3n2)cn1 [Compound T-74, 2-(3-(4-(2-((1-Methyl-1H-pyrazol-4-yl)amino)thieno[3,2-d]pyrimidin-4-yl)-1H-pyrazol-1-yl)-1-(methylsulfonyl)azetidin-3-yl)acetonitrile] |
| 50 to 500 | < 50 | 50 to 500 | Cn1cc(Nc2nc(-c3cnn(C4(CC#N)CC4)c3)c3sccc3n2)cn1 [Compound T-75, 2-(1-(4-(2-((1-Methyl-1H-pyrazol-4-yl)amino)thieno[3,2-d]pyrimidin-4-yl)-1H-pyrazol-1-yl)cyclopropyl)acetonitrile] |

From patent publication US9745320B2, “Five-and-six-membered heterocyclic compound, and preparation method, pharmaceutical composition and use thereof” (SHANGHAI CHEMEXPLORER CO., LTD., priority 2013, dated 2017)
